Experimental data: patent publication US20220016215A1, “GIP RECEPTOR AGONIST PEPTIDE COMPOUNDS AND USES THEREOF” (TAKEDA PHAARMACEUTICAL COMPANY LIMITED, priority 2018, published 2022)
“And” between values parts separate entries of the source, which are not always exact repeats. Identical values can stand only once. Marks after values point to notes of the source that are not given here.

What was measured:
human GIPR = molecular target: T1, human GIPR (Homo sapiens, UniProt P48546); assay: Agonist activity on human GIPR, CRE-luciferase reporter assay (increase in intracellular cAMP as indicator); type: cell-based; conditions: GLP1R EC50 / GIPR EC50
T1 construct: expressed in transfected cells
T1 sequence (P48546 22-466): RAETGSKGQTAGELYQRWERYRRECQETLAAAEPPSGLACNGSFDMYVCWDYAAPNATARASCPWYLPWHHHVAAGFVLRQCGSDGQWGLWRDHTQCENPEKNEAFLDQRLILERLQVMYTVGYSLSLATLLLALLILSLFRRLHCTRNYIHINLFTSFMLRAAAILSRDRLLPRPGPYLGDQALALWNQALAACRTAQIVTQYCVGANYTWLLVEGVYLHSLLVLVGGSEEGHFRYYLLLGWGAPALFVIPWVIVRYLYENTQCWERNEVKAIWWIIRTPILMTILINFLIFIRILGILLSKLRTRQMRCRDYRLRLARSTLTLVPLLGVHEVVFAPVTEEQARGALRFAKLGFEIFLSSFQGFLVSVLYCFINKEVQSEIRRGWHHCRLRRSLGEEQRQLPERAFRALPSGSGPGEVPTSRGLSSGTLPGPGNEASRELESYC
Text: The human GIPR gene having an identical sequence to Genebank Accession No. U39231 is cloned into a pMSRα-neo vector to prepare hGIPR/pMSRα-neo.
(2) Construction of Reporter Plasmid Expressing Cell
Luciferase reporter gene with a cAMP-responsive sequence located upstream is transferred to a CHO-K1 cell to construct a CRE-LUC/CHO-K1 cell.
(4) Transfer of Human GIPR Gene to CRE-LUC/CHO-K1 Cell and Obtaining of Expressing Cell
The plasmid hGIPR/pMSRα-neo obtained in (1) is transferred to the CRE-LUC/CHO-K1 cell obtained in (2) to obtain a transformant. Subsequently, the cell line inducing the luciferase expression, hGIPR/CRE-LUC/CHO-K1 cell, is selected from the obtained transformant by adding GIP.
25 μL each of the hGIPR/CRE-LUC/CHO-K1 cell is inoculated in a 384-well white plate (Corning) in such a way as to provide 5×10^3 cells/well and may be cultured in a HamF12 medium containing 10% fetal bovine serum, 100 U/mL penicillin, and 100 μg/mL streptomycin in a CO2 incubator at 37° C. overnight. 5 μL of a medium containing a test compound is added to the cells and incubated for 4 hours at the indicated concentration in a CO2 incubator at 37° C. Steady-Glo (Promega) is added in amounts of 30 μL and shaken under light shielding. Twenty minutes later, luciferase activity is measured using a plate reader Envision (PerkinElmer). The GIPR agonist activity is calculated with increase in intracellular cAMP concentration as the indicator when the luciferase activity in the presence of 10 nM of GIP was 100% and the luciferase activity in the case of adding DMSO instead of the test compound was 0%.

[1] = tested on: morphine (0.6 mg/kg, s.c.)-induced emesis in ferrets; assay: Morphine-induced acute emetic model in male ferrets; type: in vivo, ferret; conditions: for Emesis: Duration / Emesis: Frequency / Emesis: No. of animals (responder/used) / Fidget: Duration / Fidget: Frequency / Fidget: No. of animals (responder/used) / Licking: Duration / Licking: Frequency / Licking: No. of animals (responder/used) / Retching: Duration / Retching: Frequency / Retching: No. of animals (responder/used) / Vomiting: Duration / Vomiting: Frequency / Vomiting: No. of animals (responder/used) / Emesis: Latency / Fidget: Latency / Licking: Latency / Retching: Latency / Vomiting: Latency: morphine 0.6 mg/kg s.c. 4 h after drug; for Emesis: Latency / Fidget: Latency / Licking: Latency / Retching: Latency / Vomiting: Latency: non-responders counted as 30 min; for Comment: Anti-Emetic Activity (inhibition) on morphine-induced emesis: summary of the morphine experiments
Procedure: Example 6—In-Vivo Effect of GIP Receptor Agonist Peptides on Emesis in Morphine Induced Emesis Model in Live Male Ferrets
Effect of subcutaneously administered GIP receptor agonist peptide in morphine-induced acute emetic model.
To evaluate the antiemetic effect, the GIP receptor agonist peptides other than natural human GIP were subcutaneously administered into male ferrets 30 minutes before morphine administration. […]. Up to 60 minutes after morphine administration, the condition of the ferrets was monitored to record the frequencies and time points of abdominal contraction motions, vomiting behaviors, licking with the tongue, and fidgety behavior occurring
Effects of Subcutaneously Administered GIP Receptor Agonist Peptides in Morphine-Induced Acute Emetic Model
30 nmol/kg of Compounds 3 and 5 were dissolved with a vehicle (0.09 w/v % tween 80/10% DMSO/saline), respectively, to prepare test solutions. […] of the test solutions and the vehicle were subcutaneously administered to ferrets (4 in each group), respectively. At the time of each of 4 hours, after administration, 0.6 mg/kg of morphine was subcutaneously administered. […] See results in Tables 6, 7 and 8.
(§1) 10 nmol/kg of each compound dissolved with a vehicle (0.09 w/v % tween 80/10% DMSO/saline) respectively, to prepare test solutions. […] of the test solutions and the vehicle were subcutaneously administered to ferrets (4 in each group), respectively. At the time of each of 4 hours, or 120 hours after administration, 0.6 mg/kg of morphine was subcutaneously administered. Up to 360 minutes after morphine administration, the condition of the ferrets was monitored to record the frequencies and time points of abdominal contraction motions, vomiting behaviors, licking with the tongue, and fidgety behavior occurring.
as §1, with “30 nmol/kg” for “10 nmol/kg”, “80/10% DMSO/saline),respectively,” for “80/10% DMSO/saline) respectively,”

[2] = ferrets, 10 nmol/kg s.c., morphine administered 4 h after, cumulative total duration, individual animals and Mean
[3] = ferrets, 10 nmol/kg s.c., morphine administered 4 h after, individual animals and Mean
[4] = ferrets, 10 nmol/kg s.c., morphine administered 4 h after, individual animals and Mean, no emetic response = 30 min
[5] = ferrets, 10 nmol/kg s.c., morphine administered 4 h after, individual animals and Mean, no response = 30 min

YAibEGTFISDYSIALDKI(Lys-(ethylene glycol)2-C15 diacid)QQDFVNWLLAQRG-OH [Compound 25]
Selectivity Ratio (B/A) (human GIPR): >100,000
Retching Latency ([1]; ferrets, 10 nmol/kg s.c., morphine (0.6 mg/kg, s.c.) administered 4 h after, individual animals and Mean, no emetic response = 30 min): 30 min
Emesis (Retching + Vomiting) Duration [1, 2]: 0 min (4×) and 0.0 min
Retching Duration [1, 2]: 0 min
Vomiting Duration [1, 2]: 0 min
Fidget Duration [1, 3]: 0 min (4×) and 0.0 min
Licking Duration [1, 3]: 0 min (4×) and 0.0 min
Retching Frequency [1, 3]: 0
Vomiting Frequency [1, 3]: 0
Emesis (Retching + Vomiting) Latency [1, 4]: 30 min
Vomiting Latency [1, 4]: 30 min
Fidget Latency [1, 5]: 30 min (4×) and 30.0 min
Licking Latency [1, 5]: 30 min (4×) and 30.0 min
Emesis: Duration ([1]; ferrets, 10 nmol/kg s.c.): 0.0 ± 0.0 min
Emesis: Frequency ([1]; ferrets, 10 nmol/kg s.c.): 0.0 ± 0.0
Emesis: No. of animals (responder/used) ([1]; ferrets, 10 nmol/kg s.c.): 0/4 #
Fidget: Duration ([1]; ferrets, 10 nmol/kg s.c.): 0.0 ± 0.0^ min
Fidget: Frequency ([1]; ferrets, 10 nmol/kg s.c.): 0.0 ± 0.0
Fidget: No. of animals (responder/used) ([1]; ferrets, 10 nmol/kg s.c.): 0/4 #
Licking: Duration ([1]; ferrets, 10 nmol/kg s.c.): 0.0 ± 0.0^ min
Licking: Frequency ([1]; ferrets, 10 nmol/kg s.c.): 0.0 ± 0.0
Licking: No. of animals (responder/used) ([1]; ferrets, 10 nmol/kg s.c.): 0/4 #
Retching: Duration ([1]; ferrets, 10 nmol/kg s.c.): 0.0 ± 0.0 min
Retching: Frequency ([1]; ferrets, 10 nmol/kg s.c.): 0.0 ± 0.0
Retching: No. of animals (responder/used) ([1]; ferrets, 10 nmol/kg s.c.): 0/4 #
Vomiting: Duration ([1]; ferrets, 10 nmol/kg s.c.): 0.0 ± 0.0 min
Vomiting: Frequency ([1]; ferrets, 10 nmol/kg s.c.): 0.0 ± 0.0
Vomiting: No. of animals (responder/used) ([1]; ferrets, 10 nmol/kg s.c.): 0/4 #
Emesis: Latency ([1]; ferrets, 10 nmol/kg s.c.): 30.0 ± 0.0 min
Fidget: Latency ([1]; ferrets, 10 nmol/kg s.c.): 30.0 ± 0.0 min
Licking: Latency ([1]; ferrets, 10 nmol/kg s.c.): 30.0 ± 0.0 min
Retching: Latency ([1]; ferrets, 10 nmol/kg s.c.): 30.0 ± 0.0 min
Vomiting: Latency ([1]; ferrets, 10 nmol/kg s.c.): 30.0 ± 0.0 min
Comment: Anti-Emetic Activity (inhibition) on morphine-induced emesis ([1]; male ferrets): 100% inhibition

CCCCCCCCCCCCCCCC(=O)NCCCC[C@H](NC(=O)[C@H](Cc1c[nH]c2ccccc12)NC(=O)[C@H](CC(=O)O)NC(=O)[C@H](CC(N)=O)NC(=O)[C@H](CCCCN)NC(=O)[C@H](CCCCN)NC(=O)CNC(=O)[C@H](CCCCN)NC(=O)[C@H](CCC(N)=O)NC(=O)[C@H](C)NC(=O)[C@H](CC(C)C)NC(=O)[C@H](CC(C)C)NC(=O)[C@H](Cc1c[nH]c2ccccc12)NC(=O)[C@H](CC(N)=O)NC(=O)[C@@H](NC(=O)[C@H](Cc1ccccc1)NC(=O)[C@H](CC(=O)O)NC(=O)[C@H](CCC(N)=O)NC(=O)[C@H](CCC(N)=O)NC(=O)[C@H](Cc1c[nH]cn1)NC(=O)[C@@H](NC(=O)[C@H](CCCCN)NC(=O)[C@H](CC(=O)O)NC(=O)[C@H](CCSC)NC(=O)[C@H](C)NC(=O)[C@@H](NC(=O)[C@H](CO)NC(=O)[C@H](Cc1ccc(O)cc1)NC(=O)[C@H](CC(=O)O)NC(=O)[C@H](CO)NC(=O)[C@@H](NC(=O)[C@H](Cc1ccccc1)NC(=O)[C@@H](NC(=O)CNC(=O)[C@H](CCC(=O)O)NC(=O)[C@@H](C)NC(=O)[C@@H](N)Cc1ccc(O)cc1)[C@@H](C)O)[C@@H](C)CC)[C@@H](C)CC)[C@@H](C)CC)C(C)C)C(=O)N[C@@H](Cc1c[nH]cn1)C(=O)N[C@@H](CC(N)=O)C(=O)N[C@H](C(=O)N[C@H](C(=O)N[C@@H](CCC(N)=O)C(N)=O)[C@@H](C)CC)[C@@H](C)CC [Compound 2]
Selectivity Ratio (B/A) (human GIPR): 417
Emesis: Duration ([1]; ferret, 1047 μg/kg s.c.): 0.3 ± 0.6 min
Emesis: Frequency ([1]; ferret, 1047 μg/kg s.c.): 2.7 ± 4.6
Emesis: No. of animals (responder/used) ([1]; ferret, 1047 μg/kg s.c.): 1/3
Fidget: Duration ([1]; ferret, 1047 μg/kg s.c.): 0.3 ± 0.6 min
Fidget: Frequency ([1]; ferret, 1047 μg/kg s.c.): 0.3 ± 0.6
Fidget: No. of animals (responder/used) ([1]; ferret, 1047 μg/kg s.c.): 1/3
Licking: Duration ([1]; ferret, 1047 μg/kg s.c.): 0.0 ± 0.0 min
Licking: Frequency ([1]; ferret, 1047 μg/kg s.c.): 0.0 ± 0.0
Licking: No. of animals (responder/used) ([1]; ferret, 1047 μg/kg s.c.): 0/3 #
Retching: Duration ([1]; ferret, 1047 μg/kg s.c.): 0.3 ± 0.6 min
Retching: Frequency ([1]; ferret, 1047 μg/kg s.c.): 2.7 ± 4.6
Retching: No. of animals (responder/used) ([1]; ferret, 1047 μg/kg s.c.): 1/3
Vomiting: Duration ([1]; ferret, 1047 μg/kg s.c.): 0.0 ± 0.0 min
Vomiting: Frequency ([1]; ferret, 1047 μg/kg s.c.): 0.0 ± 0.0
Vomiting: No. of animals (responder/used) ([1]; ferret, 1047 μg/kg s.c.): 0/3
Emesis: Latency ([1]; ferret, 1047 μg/kg s.c.): 22.7 ± 12.7 min
Fidget: Latency ([1]; ferret, 1047 μg/kg s.c.): 22.7 ± 12.7 min
Licking: Latency ([1]; ferret, 1047 μg/kg s.c.): 30.0 ± 0.0 min
Retching: Latency ([1]; ferret, 1047 μg/kg s.c.): 22.7 ± 12.7 min
Vomiting: Latency ([1]; ferret, 1047 μg/kg s.c.): 30.0 ± 0.0 min
Attenuation of morphine-induced emesis (in words) ([1]; male ferrets, 30 nmol/kg s.c. 30 minutes before morphine 0.6 mg/kg s.c.): completely attenuated
Comment: Anti-Emetic Activity (inhibition) on morphine-induced emesis ([1]; male ferrets): partial inhibition
